Strand notation (5' to 3'): a small letter for the sugar, then the base; units joined by * are phosphorothioate-linked, units joined directly phosphodiester-linked; [ ] holds rarer units or linkages, { } end groups; capitals alone tell only the bases. [invdT] = inverted (3'-3') thymidine; d = 2'-deoxy (DNA)
Tests used:
Egr-1 mRNA = assay: RT-PCR and Northern blot of Egr-1 mRNA in endothelial cells; assay type: cell-based, bovine; details: growth-quiescent endothelial cells, within 1 h of agonist
Protocol: Northern blot analysis. Total RNA (12 μg/well) of growth-arrested endothelial cells (prepared using TRIzol Reagent (Life Technologies) in accordance with the manufacturer's instructions) previously exposed to various agonists for 1 h was resolved by electrophoresis on denaturing 1% agarose-formialdehyde gels. Following transfer overnight to Hybond-N+ nylon membranes (Amersham), the blots were hybridized with ^32P-labeled Egr-1 cDNA prepared using the Nick Translation Kit overnight (Roche). The membranes were washed and radioactivity visualized by autoradiography as previously described (Khachigian et al., 1995).
RT-PCR. Reverse transcription was performed with 8 μg of total RNA using M-MLV reverse transcriptase. Egr-1 cDNA was amplified (334 bp product (Delbridge, G. J. and Khachigian, L. M. (1997), Circ. Res., 81:282-288)) using Taq polymerase by heating for 1 min at 94° C., and cycling through 94° C. for 1 min, 94° C. for 1 min, 55° C. for 1 min, and 72° C. for 1 min. Following thirty cycles, a 5 min extension at 72° C. was carried out. Samples were electrophoresed on 1.5% agarose gel containing ethidium bromide and photographed under ultraviolet illumination. β-actin amplification (690 bp product) was performed essentially as above. The sequences of the primers were: Egr-1 forward primer (5′-GCA CCC AAC AGT GGC AAC-3′) (SEQ ID NO:18), Egr-1 reverse primer (5′-GGG ATC ATG GGA ACC TGG-3′) (SEQ ID NO: 19), β-actin forward primer (5′-TGACGGGGTCACCCACACTGTGCCCATCTA 3′) (SEQ ID NO:20), and β-actin reverse primer (5′-CTAGAAGCATTTGCGGTGGACGATGGAGGG-3′) (SEQ ID NO:21).

Egr-1 [1] = assay: Transient transfection CAT reporter assay (pEBS1^3foscat), Egr-1-dependent gene expression; assay type: cell-based, bovine; details: growth-arrested endothelial cells, 24 h; glucose 5 to 30 mM, insulin 100 nM, FGF-2 25 ng/ml
Protocol: Transient transfection analysis and, CAT assay. The endothelial cells were grown to 60-70% confluence in 100 mm. dishes and transiently transfected with 10 μg of the indicated chloramphenicol acetyl transferase (CAT)-based promoter reporter construct using FuGENE6 (Roche). The cells were rendered growth-quiescent by incubation 48 h in 0.25% FBS, and stimulated with various agonists for 24 h prior to harvest and assessment of CAT activity. CAT activity was measured and normalized to the concentration of protein in the lysates (determined by Biorad Protein Assay) as previously described (Khachigian, L. M. and Chesterman, C. N. (1999), Circ. Res., 84:1258-1267).

Egr-1 protein = assay: Western blot of Egr-1 protein in endothelial cells; assay type: cell-based, bovine; details: for insulin-inducible Egr-1 protein synthesis: 0.8 μM oligonucleotide
Protocol: Antisense oligonucleotide delivery and Western blot analysis. Growth arrested cells in 100 mm dishes were incubated with the indicated oligonucleotides 24 h and 48 h after the initial change of medium. When oligonucleotide was added a second time, the cells were incubated with various concentrations of insulin and harvest 1 h subsequently. […] Lysates were resolved by electrophoresis on 8% denaturing SDS-polyacrylamide gels, transferred to PDVF nylon membranes (NEN-DuPont), blocked with skim milk powder, then incubated with polyclonal antibodies to Egr-1 (Santa Cruz Biotechnology, Inc) and monoclonal horseradish peroxidase-linked mouse anti-rabbit Ig secondary antibodies followed by chemiluminescent detection (NEN-DuPont).

[2] = test system: bovine aortic endothelial cells; assay: In vitro injury (scrape) endothelial regrowth; assay type: cell-based; details: for endothelial regrowth stimulated by insulin after injury: 0.8 μM oligonucleotide
Protocol: In vitro injury. Growth-arrested cells at 90% confluence were incubated with antisense oligonucleotides and insulin at various concentrations as described above, then were scraped by drawing a sterile wooden toothpick across the monolayer (Khachigian et al., 1996). Following 48-72 h, the cells were fixed in 4% formalin, stained with hemotoxylin/eosin then photographed.

[3] = test system: bovine aortic endothelial cells; assay: 3H-thymidine incorporation into DNA, aortic endothelial cells; assay type: cell-based; details: for insulin-inducible DNA synthesis: inhibitor added 2 h before insulin 500 nM, PD98059 10 and 30 μM, wortmannin 0.3 and 1 μM, SB202190 100 and 500 nM; for basal endothelial DNA synthesis: no added insulin, 0.25% serum
Protocol: ^3H-Thymidine incorporation into DNA. Growth-arrested endothelial cells at 90% confluence in 96 well plates were incubated twice with the oligonucleotides prior to the addition of insulin. […] After 18 h of exposure to insulin, the cells were pulsed with 200,000 cpm/well of methyl-3H thymidine (NEN-DuPont) for 6 h.

EGR-1 [4] = assay: Western blot of EGR-1 in HepG2 cells; assay type: cell-based, human
EGR-1, sequence (P18146 whole entry): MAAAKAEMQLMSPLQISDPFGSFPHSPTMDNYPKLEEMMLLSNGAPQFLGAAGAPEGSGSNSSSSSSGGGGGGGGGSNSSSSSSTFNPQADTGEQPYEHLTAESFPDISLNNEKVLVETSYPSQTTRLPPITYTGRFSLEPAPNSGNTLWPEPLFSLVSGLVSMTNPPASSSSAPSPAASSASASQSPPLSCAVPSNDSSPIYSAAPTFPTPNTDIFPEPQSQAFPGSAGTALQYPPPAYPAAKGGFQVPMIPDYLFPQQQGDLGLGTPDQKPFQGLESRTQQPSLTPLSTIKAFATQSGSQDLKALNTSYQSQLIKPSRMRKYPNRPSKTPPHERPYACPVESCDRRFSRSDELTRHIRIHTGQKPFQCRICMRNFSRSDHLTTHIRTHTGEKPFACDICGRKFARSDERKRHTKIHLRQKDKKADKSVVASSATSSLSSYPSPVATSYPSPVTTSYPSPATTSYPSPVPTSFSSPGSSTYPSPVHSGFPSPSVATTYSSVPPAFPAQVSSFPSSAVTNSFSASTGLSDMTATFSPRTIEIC

NGFI-A protein = assay: Western blot of NGFI-A protein in SMCs; assay type: cell-based, rat; details: 5% FBS 1 h
Protocol: (§1) Culture conditions and DNAzyme transfection. Primary rat aortic SMCs were obtained from Cell Applications, Inc., and grown in Waymouth's medium, pH 7.4, containing 10% fetal bovine serum (FBS), 50 μg/ml streptomycin and 50 IU/ml penicillin at 37° C. in a humidified atmosphere of 5% CO2 SMCs were used in experiments between passages 3-7. Pup rat SMCs (WKY12-22 (as described in Lernire et al, 1994, the entire contents of which are incorporated herein by reference)) were grown under similar conditions. Subconfluent (60-70%) SMCs were incubated in serum-free medium (SFM) for 6 h prior to DNAzyme (or antisense ODN, where indicated) transfection (0.1 μM) using Superfect in accordance with manufacturer's instructions (Qiagen). After 18 h, the cells were washed with phosphate-buffered saline (PBS), pH 7.4 prior to transfection a second time in 5% FBS.
Western blot analysis. Growth-quiescent SMCs in 100 mm plates (Nunc-InterMed) were transfected with ED5 or ED5SCR as above, and incubated with 5% FBS for 1 h. The cells were washed in cold PBS, pH 7.4, and extracted in 150 mM NaCl, 50 mM Tris-HCI, pH 7.5, […], 0.1% SDS, 1% Triton X-100, 5 mM EDTA, 1% trasylol, 10μ/ml leupeptin, 1% aprotinin and 2 mM PMSF. Twenty four μg protein samples were loaded onto 10% denaturing SDS-polyacrylamide gels and electroblotted onto PVDF nylon membranes (NEN-DuPont). […]

Primary rat aortic SMCs = assay: SMC proliferation assay (Coulter counter); assay type: cell-based
Protocol: as §1, with “Subconfluent (60-70%) SMCs were incubated in serum-free medium (SFM) for 6 h prior to DNAzyme (or antisense ODN, where indicated) transfection (0.1 μM) using Superfect in accordance with manufacturer's instructions (Qiagen).” left out
Assays of cell proliferation. Growth-quiescent SMCs in 96-well titer plates (Nunc-InterMed) were transfected with ED5 or ED5SCR as above, then exposed to 5% FBS at 37° C. for 72 h. The cells were rinsed with PBS, pH 7.4, trypsinized and the suspension was quantitated using an automated Coulter counter.

Compound: insulin
- Egr-1 mRNA levels (Egr-1 mRNA): elevated steady-state Egr-1 mRNA levels
- Egr-1 binding activity (CAT reporter activity) (Egr-1 [1]): did increase
- Egr-1 protein synthesis (Egr-1 protein; insulin 100 nM and 500 nM, within 1 h): induced Egr-1 protein synthesis
- population of cells in the denuded zone after injury ([2]; insulin 500 nM at time of injury, 3 days): significantly increased
- increase in DNA synthesis ([3]; insulin 100 nM): 100%
- increase in DNA synthesis ([3]; insulin 500 nM): 200%

Compound: SEQ ID NO:24: size matched DNAzyme with different sequence, 5′-tcagctgcaGGCTAGCTACAACGActcggcctt (DNA TCAGCTGCAGGCTAGCTACAACGACTCGGCCT; DNA, [invdT] at 3' end, backbone not given here) [reference compound]
- EGR-1 expression in HepG2 cells (EGR-1 [4]): no effect

Compound: Oc1ccc(-c2nc(-c3ccncc3)c(-c3ccc(F)cc3)[nH]2)cc1 [SB202190, reference compound]
- insulin-inducible DNA synthesis [3]: failed to affect DNA synthesis

Compound: COc1cccc(-c2cc(=O)c3ccccc3o2)c1N [PD98059, reference compound]
- insulin-inducible DNA synthesis [3]: inhibited insulin-inducible DNA synthesis in a dose-dependent manner

Compound: O=C[C@H](O)[C@@H](O)[C@H](O)[C@H](O)CO [glucose]
- Egr-1 binding activity (CAT reporter activity) (Egr-1 [1]): did not increase

Compound: EDC: DNAzyme with identical catalytic domain flanked by nonsense arms, 5′-CGCCATTAGGCTAGCTACAACGACCTAGTGAT-3′; 3′T inverted (DNA CGCCATTAGGCTAGCTACAACGACCTAGTGA; DNA, [invdT] at 3' end, backbone not given here)
- serum-induction of NGFI-A protein (NGFI-A protein): neither ED5SCR nor EDC, a DNAzyme bearing an identical catalytic domain as ED5 and ED5SCR but flanked by nonsense arms had any influence

Compound: AS2: Phosphorothioate-linked antisense oligonucleotide to translational start site of Egr-1 mRNA, 5′-CsTsTsGsGsCsCsGsCsTsGsCsCsAsT-3′ (DNA dC*dT*dT*dG*dG*dC*dC*dG*dC*dT*dG*dC*dC*dA*dT)
- insulin-inducible Egr-1 protein synthesis (Egr-1 protein): inhibited
- endothelial regrowth stimulated by insulin after injury [2]: significantly inhibited
- inhibition of SMC proliferation stimulated by serum (Primary rat aortic SMCs; 0.1 μM, 5% FBS, 3 days): failed to inhibit proliferation
- SMC growth (Primary rat aortic SMCs; 1 μM): able to inhibit SMC growth
- insulin-inducible 3H-thymidine incorporation ([3]; 0.4 μM oligonucleotide (vs 0.8 μM), insulin 500 nM): less effectively
- DNA synthesis inducible by insulin ([3]; 0.8 μM oligonucleotide, insulin 500 nM and 1000 nM): significantly inhibited
- basal endothelial DNA synthesis ([3]; 0.8 μM oligonucleotide): inhibited

Compound: AS2C: size-matched phosphorothioate-linked counterpart of AS2 with similar base composition, 5′-GsCsAsCsTsTsCsTsGsCsTsGsTsCsC-3′ (DNA dG*dC*dA*dC*dT*dT*dC*dT*dG*dC*dT*dG*dT*dC*dC) [reference compound]
- insulin-inducible Egr-1 protein synthesis (Egr-1 protein): lack of attenuation
- endothelial regrowth stimulated by insulin after injury [2]: not significantly different
- basal endothelial DNA synthesis ([3]; 0.8 μM oligonucleotide): little effect

Compound: CCCCCCCCCCCCCC(=O)O[C@@H]1[C@@H](C)[C@@]2(O)[C@@H](C=C(CO)C[C@]3(O)C(=O)C(C)=C[C@@H]23)[C@@H]2C(C)(C)[C@]12OC(C)=O [PMA, Phorbol-12-myristrate 13-acetate, reference compound]
- Egr-1 mRNA levels (Egr-1 mRNA): elevated steady-state Egr-1 mRNA levels

Compound: fibroblast growth factor-2 [FGF-2]
- Egr-1 mRNA levels (Egr-1 mRNA): elevated steady-state Egr-1 mRNA levels
- Egr-1 binding activity (CAT reporter activity) (Egr-1 [1]): increased
